Measured values taken from patent EP0103381B1, “Substituted anthra(1,9-cd)pyrazol-6(2H)-ones” (WARNER-LAMBERT COMPANY, priority 1982, dated 1984).

How the values were obtained:
[1] = tested on: B16 Melanoma (BDF1); test: broad spectrum antitumor activity in mice, B16 melanoma (BDF1); format: in vivo; settings: IP/IP
Description: (§1) Broad Spectrum Antitumor Activity^* of 2-[2-(Diethylamino)ethyl]-7,10-dihydroxy-5-[[2-[(2-hydroxyethyl)amino]ethyl]amino]anthra[1-9-cd]pyrazol-6(2H)-one Dihydrochloride in Mice

[2] = tested on: HCT-8 (human colon adenocarcinoma) cells; test: in vitro activity against human colon adenocarcinoma (HCT-8), cell count; format: cell-based; settings: Homo sapiens; HCT-8 cells, 60-65 hrs with compound; molar quantity of drug required to kill 50% of the tumor cells; read-out: ID50 Molar
Summary of the method: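 HCT-8 cells seeded at ~30,000 cells/ml in RPMI 1640 + 10% FCS, grown 48 hrs at 37°C, then exposed to compound 60-65 hrs. Lysed cells counted by Coulter counter; activity as percent of controls, reported as ID50 (molar quantity killing 50% of cells).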

[3] = tested on: Colon 38 (BDF1); test: broad spectrum antitumor activity in mice, Colon 38; format: in vivo; settings: SC/IP, Q01D × 09, Dose 16 mg/kg
Description: as §1

[4] = tested on: M5076 Ovary; test: broad spectrum antitumor activity in mice, M5076 ovary; format: in vivo; settings: IP/IP
Description: as §1

[5] = tested on: B16 Melanoma (B6C3F1); test: broad spectrum antitumor activity in mice, B16 melanoma (B6C3F1); format: in vivo; settings: I-/IP
Description: as §1

[6] = tested on: Escherichia coli; test: agar plate paper-disc inhibition zone screening; format: cell-based; settings: Dose 0.5 mg/ml, read-out: Inhibition Zone Diameter mm (Dose mg/ml) E. Coli
Summary of the method: (§2)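 Inoculum: saline suspension, 20-35% transmittancy, in molten agar. Discs 12.7 mm, compound 3,000/1,000/500/100/10 mcg/ml, solvent <10%. 37°C, 18-20 h; zone diameter in mm.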

[7] = tested on: Streptococcus faecalis; test: agar plate paper-disc inhibition zone screening; format: cell-based; settings: Enterococcus faecalis; Dose 1.0 mg/ml; read-out: Inhibition Zone Diameter mm (Dose mg/ml) S. Faecalis
Summary of the method: as §2

[8] = tested on: Aerobacter aerogenes; test: agar plate paper-disc inhibition zone screening; format: cell-based; settings: Klebsiella aerogenes; Dose 1.0 mg/ml; read-out: Inhibition Zone Diameter mm (Dose mg/ml) A. Aerogenes
Summary of the method: as §2

[9] = tested on: Bacillus subtilis; test: agar plate paper-disc inhibition zone screening; format: cell-based; settings: Dose 1.0 mg/ml, read-out: Inhibition Zone Diameter mm (Dose mg/ml) B. Subtilis
Summary of the method: as §2

[10] = tested on: Penicillium avellaneum; test: agar plate paper-disc inhibition zone screening; format: cell-based; settings: Hamigera avellanea; Dose 3.0 mg/ml; read-out: Inhibition Zone Diameter mm (Dose mg/ml) P. Avellaneum
Summary of the method: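 Mycelia and spores from a six-day 28°C agar culture, suspended in saline with 0.05% Tween 80 at 20% transmittancy, were seeded into molten agar trays. Compounds at 3,000, 1,000, 500, 100 and 10 mcg/ml (solvent <10%) were applied on 12.7 mm paper discs. After at least 20-24 h incubation, inhibition zone diameter was measured in mm.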

SMILES: CCN(CC)CCn1nc2c3c(c(NCCNCCO)ccc31)C(=O)c1c(O)ccc(O)c1-2 [Example 28, 2-[2-(Diethylamino)ethyl]-7,10-dihydroxy-5-[[2-[(2-hydroxyethyl)amino]ethyl]amino]anthra[1,9-cd]pyrazol-6(2H)-one]
- T/C × 100 (Percent) ([1]; Q01D × 09, Dose 4 mg/kg): 151%
- T/C × 100 (Percent) ([1]; Q01D × 09, Dose 8 mg/kg): 176%
- IC50 [2]: 270 nM
- % Tumor Reduction [3]: 71%
- T/C × 100 (Percent) ([4]; Q04D × 04, Dose 1.25 mg/kg): 143%
- T/C × 100 (Percent) ([4]; Q04D × 04, Dose 2.5 mg/kg): 233%
- T/C × 100 (Percent) ([4]; Q04D × 04, Dose 5 mg/kg): 186%
- T/C × 100 (Percent) ([4]; Q04D × 04, Dose 10 mg/kg): 260%
- T/C × 100 (Percent) ([5]; Q01D × 09, Dose 3 mg/kg): 148%
- T/C × 100 (Percent) ([5]; Q01D × 09, Dose 6 mg/kg): 189%
- zone of inhibition at 500 µg/mL [6]: 14 mm
- zone of inhibition at 1000 µg/mL [7]: 14 mm
- zone of inhibition at 1000 µg/mL [8]: 14 mm
- zone of inhibition at 1000 µg/mL [9]: 15 mm
- zone of inhibition at 3000 µg/mL [10]: 0 mm
